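All cell lines were grown in 96-well plates and treated with compound for 48 hours. The concentration for 50% growth inhibition is given as GI50. TGI is the concentration that stops growth completely.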
Tests used:
Assay in all cases: NCI-60 cell line screen, 48 h
786-0 renal = system: 786-0 renal
CCRF-CEM leukemia = system: CCRF-CEM leukemia
HOP-62 NSCLC = system: HOP-62 NSCLC
IGROV1 ovarian = system: IGROV1 ovarian
SF-539 CNS = system: SF-539 CNS
SK-MEL-28 melanoma = system: SK-MEL-28 melanoma
SK-MEL-5 melanoma = system: SK-MEL-5 melanoma
SN12C renal = system: SN12C renal
SNB-19 CNS = system: SNB-19 CNS
SR leukemia = system: SR leukemia

Compound	TGI (786-0 renal) [µM]	TGI (CCRF-CEM leukemia) [µM]	TGI (HOP-62 NSCLC) [µM]	TGI (IGROV1 ovarian) [µM]	TGI (SF-539 CNS) [µM]	TGI (SK-MEL-28 melanoma) [µM]	TGI (SK-MEL-5 melanoma) [µM]	TGI (SN12C renal) [µM]	TGI (SNB-19 CNS) [µM]	GI50 (786-0 renal) [µM]	GI50 (CCRF-CEM leukemia) [µM]	GI50 (HOP-62 NSCLC) [µM]	GI50 (IGROV1 ovarian) [µM]	GI50 (SK-MEL-28 melanoma) [µM]	GI50 (SK-MEL-5 melanoma) [µM]	GI50 (SN12C renal) [µM]	GI50 (SNB-19 CNS) [µM]	GI50 (SR leukemia) [µM]	TGI (SR leukemia) [µM]	GI50 (SF-539 CNS) [µM]
CCCCCCCCCCCCCS(=O)(=O)O	> 100	> 100	> 100	> 100	> 100	> 100	> 100	> 100	> 100											
CC/C=C\C[C@H](O)C/C=C1/C(=O)C=C[C@@H]1C/C=C\CCCC(=O)NC(C)C	5.4	8.38	6.59	10		4.98	3.35	6.35	22.6	2.47	2.09	2.65	2.94	2.14	1.8	2.51	8.75	2.43	8.33	
COC(=O)C1(C)C=C(Nc2ccccc2)C(=O)N1c1ccccc1 (centres undefined)	> 100	> 100	> 100	> 100	> 100	> 100	> 100	> 100	> 100											
CCCCCCCCCCCCN1C(C)=CS/C1=C\C=C\c1scc(C)[n+]1CCCCCCCCCCCC	7.37	> 100	28.7		8.69	17.3		4.2	10.3	2.17	1.98	3.51		2.74		1.65	1.91	1.12	> 100	2.02
OCCN(CCO)N=Nc1ccc(-c2nc3ccccc3[nH]2)cc1	56.2		> 100	> 100		29.5	53.4	> 100	> 100	25.2		> 100	87.4	15.8	20.2	85.5	> 100	20.3	58.2	
CC(C(=O)N1C(=O)N(C(=O)C(C)C(O)c2ccccc2)C(c2ccccc2)C1c1ccccc1)C(O)c1ccccc1 (centres undefined)	> 100	32.2	> 100	> 100	22.6	40.2		37.3	> 100										14.5	
O=C(Nc1ccc(Cl)c(C(F)(F)F)c1)C(=O)C(C(=O)/C=C/c1ccccc1)C1OC(=O)c2ccccc21 (centres undefined)	> 100	> 100	> 100	> 100				> 100	> 100										> 100	
Cc1ccc(C)c(NC(=O)C(=O)C2C(=O)C3=C(CC2(C)C)Nc2ccccc2S3)c1 (centres undefined)	> 100	> 100	> 100	> 100	> 100	> 100	> 100	> 100	> 100											
CC(=O)N1CCC2(C=Nc3ccccc32)CC1	> 100	> 100	> 100	> 100	> 100	> 100	> 100													
O=C(O)c1ccc(NC(=O)C2C(=O)C(=O)N(c3ccc(C(=O)O)cc3)C2=O)cc1 (centres undefined)	> 100	> 100	> 100	> 100	> 100	> 100		> 100	> 100											
CC[C@@H]1C[C@@H]2CN3CCc4c([nH]c5ccc(OC)cc45)C(COC(=O)c4ccc(OC)c(OC)c4)(C2)C13	> 100	95.7	93	74.5	55	> 100		39.3	> 100										78.4	
CSC(=S)c1ccc(C(=S)SC)cc1	> 100		> 100	> 100	> 100		> 100	> 100	> 100										> 100	
O=C(Nc1ccc(S(=O)(=O)Nc2nccs2)cc1)c1cccnc1Nc1cccc(Cl)c1	39.9	> 100	31.3	53	44.5	37.7	23.5	25.9	34.4	17.9	23.4	16.2	15.4	17.8	11.3	12.5	14.7			16.2
Cn1ccnc1C(=O)/C=C/c1ccc(CC(=O)Nc2ccc(Cl)cc2)cc1	> 25	> 25	> 25	> 25	> 25	> 25	> 25	> 25	> 25	1.6	1.46	2.16	5.27	> 25	14.4	3.04	1.77			6.4
Oc1ccc(C(c2ccccc2)(c2ccccc2)c2ccccc2)cc1	29.7	39.5	31.5	27.6	31.9		32.5	31.6	32.2	14.4	21.1	17.6	14.3		15.7	16.9	16.8	25.4	56.9	17.6
Cc1ccc(S(=O)(=O)N/N=C(\CCN2CCCC2)CC(c2ccccc2)c2c(O)c3ccccc3oc2=O)cc1 (centres undefined)	> 100	> 100	> 100	> 100	> 100		> 100	> 100	> 100										> 100	
Cc1ccc(NC(=O)c2[nH]c(=S)nc(N)c2-c2ccccc2C)cc1C	> 100	> 100		> 100	> 100	> 100	> 100	> 100	> 100											
CN(C)CCNC(=O)c1ccc(Nc2nc3ccccc3c3occc23)cc1	6.8	8.74	8.16	10.3	3.7	44	14	7.87	39	2.57	3.04	3.35	2.18	16.5	3.96	2.5	18.8			1.83
